The experiment relates to CEM cells HIV-1 protection, formazan growth assay. Put plainly: NCI AIDS Antiviral Assay. As to conditions: for IC50: measured here: growth of uninfected CEM cells. In outline:
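CEM (human) cells, HIV-1 infected vs uninfected, 5-point dosing, formazan growth read-out. Retest threshold 50% protection.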

Results on 71 compounds are retold here after PubChem BioAssay AID179 (DTP/NCI, 2004).

The source made the active and inactive calls.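 How the source made its calls: active means compounds giving half or more protection of infected cells from virus-caused growth loss, again on retest; inactive means the rest.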 *1 amine or outer side, *2 acyl side, *3 side chain or, on linkers, in order; H or OH if unused. Where a SMILES comes first, the peptide text is derived from it. [ ]: non-standard residue; d: D form. The star is where a group is joined. X7 = NC(N)=NCC(O)CC(N[*:1])C(=O)[*:2]; Orn = NCCC[CH](N)C(=O)O; Boc = CC(C)(C)OC(=O)*; OBn = c1ccc(CO*)cc1 Bounds are passed on as bounds.

Regarding `CN(C)/C=N/c1cc(=O)n(C)c(=O)n1C`, the result was inactive.

Take `Brc1ncnc2c1ncn2C1CCCS1` (stereo not given): the result was inactive.

For the compound `CCCCCCCCCCCCCCCCC(O)CS(=O)(=O)O` (stereo not given), the EC50 was above 100 µM and the IC50 was found to be 16.2 µM.

As for `Cc1ccc(N=NN(C)C(C)C(O)Cc2ccccc2)cc1` (stereo not given), the EC50 is above 200 µM and the IC50 stood at 77.6 µM.

With `O=COC1CC(n2ccc(=O)[nH]c2=O)OC1CO` (stereo not given), the EC50 is above 4570 µM and the IC50 turned out to be 263 µM.

As to `OC(/C=C/c1ccccc1)Cc1nc2ccccc2[nH]1` (stereo not given), the EC50 was above 38 µM and the 50% inhibitory concentration (IC50) is above 38 µM.

Turning to `Cc1ccc(SCC(CF)OC(C)n2cnc3c(=O)[nH]c(N)nc32)cc1` (stereo not given), the EC50 is above 200 µM and the half-inhibitory concentration (IC50) came out at 74.1 µM.

On to `COc1ccc(/C=C2\CCC(C)C3=C2N=c2s/c(=C/c4cccc(Br)c4)c(=O)n2C3c2ccc(OC)c(OC)c2)cc1OC` (stereo not given), for which the EC50 is above 50.1 µM and the IC50 is above 50.1 µM.

In the case of `C[C@]12CCC3[C@@H](CCC4(C=N)CC(=O)CC[C@]34C)C1CC[C@@H]2O` (stereo not given in full), the result was inactive.

As to `CCOc1cccc2sc(N)nc12`, the outcome was inactive.

`O=C1NCC2=C1CCC1c3ccccc3CCN21` (stereo not given): the EC50 was above 200 µM and the IC50 was above 200 µM.

For `O=C(CCCN1CCC(Nc2ccc(F)cc2)(c2nnnn2C2CCCCC2)CC1)c1ccc(F)cc1`, the EC50 was above 200 µM and the IC50 turned out to be 16.6 µM.

Consider `CCOC(=O)/C(=C/c1ccccc1)N(CC)CC`, for which the EC50 was above 55 µM and the 50% inhibitory concentration (IC50) was above 55 µM.

Consider `N#CC(/C(=N\NC(=O)c1ccncc1)C(=O)Nc1ccc([N+](=O)[O-])cc1[N+](=O)[O-])c1nc(-c2ccc(Br)cc2)cs1` (stereo not given), for which the EC50 is above 389 µM and the IC50 is above 389 µM.

`CC(O)C(NC(=O)C(CCCN)NC(=O)C(CC(O)CN=C(N)N)NC(=O)C(N)CCCN=C(N)N)C(=O)NC(CCCN)C(=O)NC(CC(O)CN=C(N)N)C(=O)NC(Cc1ccc(O)cc1)C(=O)O` (stereo not given) (H-R[X7][Orn]T[Orn][X7]Y-OH; configuration not given here): the EC50 was above 245 µM and the IC50 stood at 174 µM.

On to `N#CN/C(N)=N/C/N=C(\N)NC#N`, for which the EC50 was above 501 µM and the 50% inhibitory concentration (IC50) is above 501 µM.

With `COC(=O)c1c[nH]cc1CCCCc1c[nH]cc1C(=O)OC`, the outcome was inactive.

Regarding `c1ccc(SCc2ccc3c(c2)OCO3)cc1`, the EC50 was above 77.6 µM and the half-inhibitory concentration (IC50) was above 77.6 µM.

Turning to `CC(C)CC(NC(=O)OC(C)(C)C)C(=O)NC(CC(=O)OCc1ccccc1)C(=O)OCc1ccccc1` (stereo not drawn) (Boc-Leu-Asp(OBn)-OBn; configuration not given here), the EC50 was above 200 µM and the concentration for half-maximal inhibition (IC50) stood at 33.1 µM.

As to `COc1ccc(/C=C/C(=O)/C=C/c2ccc(OC)cc2OC)c(OC)c1`, the EC50 was above 200 µM and the IC50 was determined as 3.89 µM.

For `COc1cccc(/C=N/NC(=O)CN(C)C)c1O`, the EC50 was above 200 µM and the 50% inhibitory concentration (IC50) worked out at 51.3 µM.

For `Cc1nc(N)nc(N)c1N1CCN(c2ccc(S(=O)(=O)N(Cc3ccccc3)Cc3ccccc3)cc2)CC1`, the EC50 was 0.0501 µM and the 50% inhibitory concentration (IC50) was found to be 0.132 µM.

Consider `c1ccc(C2=NN(c3ccccc3)C3(S2)SC(c2ccccc2)(c2ccccc2)c2ccccc23)cc1` (stereo not given), for which the EC50 is above 50.1 µM and the IC50 is above 50.1 µM.

As for `CCOC(=O)c1c(SCc2cc(=O)[nH]c(=O)[nH]2)n(-c2ccccc2)c(=S)n(-c2ccccc2)c1=O`, the concentration giving a half-maximal response (EC50) is 191 µM and the 50% inhibitory concentration (IC50) was above 200 µM.

Take `CC12CC3CC(C1)CC(N=[N+]=[N-])(C3)C2`: the EC50 is above 70.8 µM and the IC50 is above 70.8 µM.

Take `N#CC(C#N)=Cc1cccc(C#N)c1`: the EC50 is above 141 µM and the half-maximal inhibitory concentration (IC50) is 2.45 µM.

Take `Clc1ccc(Cc2nc3ccccc3s2)c(Cl)c1`: the EC50 is above 33.9 µM and the IC50 was 26.3 µM.

For the compound `Nc1nc(Cl)cc(NCC2(CO)CC(CCCc3ccccc3)C2)n1` (stereo not given), the EC50 was above 20 µM and the IC50 amounted to 0.0603 µM.

For `O=C1C(=O)N(c2cccc(C(F)(F)F)c2)C(=S)N1c1ccccc1`, the EC50 is above 200 µM and the half-maximal inhibitory concentration (IC50) was found to be 30.9 µM.

As to `CN1C(=O)N/C(=C\c2ccc(S(=O)(=O)N/N=C\C(O)C(O)C(O)C(O)CO)cc2)C1=O` (stereo not given), the EC50 was above 200 µM and the half-inhibitory concentration (IC50) is above 200 µM.

For `CC(C)(C)OC(=O)NC(Cc1ccc(O)cc1)C(=O)N1CCCC1C(=O)O` (stereo not drawn) (Boc-Tyr-Pro-OH; configuration not given here), the EC50 was above 661 µM and the half-inhibitory concentration (IC50) amounted to 269 µM.

Regarding `Cc1c2ccnc(C#N)c2c(C)c2c1[nH]c1ccccc12`, the outcome was inactive.

Take `CCOC(=O)c1ccc(CS(=O)(=O)c2ccccc2C(=O)OCC)c([N+](=O)[O-])c1`: the EC50 was above 85.1 µM and the IC50 was above 85.1 µM.

Consider `N#CCN1C(=O)c2cc([N+](=O)[O-])cc3cc([N+](=O)[O-])cc(c23)C1=O`, for which the result was inactive.

`O=C(Nc1ccc(/C=C/c2ccc(NC(=O)c3cc(S(=O)(=O)O)c4cccnc4c3O)cc2S(=O)(=O)O)c(S(=O)(=O)O)c1)Nc1ccc(/C=C/c2ccc(NC(=O)c3cc(S(=O)(=O)O)c4cccnc4c3O)cc2S(=O)(=O)O)c(S(=O)(=O)O)c1`: the EC50 was 5.5 µM and the 50% inhibitory concentration (IC50) was 50.1 µM.

`Cc1ccc(S(=O)(=O)N/N=C/C=N/NS(=O)(=O)c2ccc(C)cc2)cc1`: the result was inactive.

With `Nc1nc(Cl)c2ncn(C3C=CC(CO)CC3)c2n1` (stereo not given), the EC50 was above 200 µM and the IC50 came out at 97.7 µM.

On to `O=c1c(Cl)c(Cl)cnn1CCc1ccncc1`, for which the EC50 is above 132 µM and the IC50 was 7.08 µM.

On to `CC(C)C(=O)/C=C/c1ccccc1`, for which the EC50 is above 200 µM and the half-maximal inhibitory concentration (IC50) was 57.5 µM.

On to `Cc1c(Cc2ccccc2)n(COCCCN2C(=O)c3ccccc3C2=O)c(=O)[nH]c1=O`, for which the EC50 is above 200 µM and the 50% inhibitory concentration (IC50) stood at 26.3 µM.

Turning to `CC(C)(C)[Si](C)(C)OCc1cccc(OCCOc2cccc(CO[Si](C)(C)C(C)(C)C)c2[N+](=O)[O-])c1[N+](=O)[O-]`, the EC50 is above 50.1 µM and the half-inhibitory concentration (IC50) is above 50.1 µM.

`S=c1[nH]c2cccc3c2n1C[C@@H]1CCCN1C3`: the EC50 was above 32.4 µM and the IC50 stood at 17 µM.

Take `CC(=O)O[C@H]1[C@@H](OC2CCCC2(c2ccccc2)c2ccccc2)O[N+]([O-])=C[C@@H]1c1ccccc1` (stereo not given in full): the EC50 is above 200 µM and the IC50 was 3.09 µM.

Consider `NC(=O)C(c1ccccc1)N1CCCC1` (stereo not given), for which the EC50 was above 200 µM and the 50% inhibitory concentration (IC50) was above 200 µM.

In the case of `CN1C(=O)C[N+]([O-])=C(c2ccccc2)c2cc(Cl)ccc21`, the EC50 is above 120 µM and the concentration for half-maximal inhibition (IC50) is above 120 µM.

For the compound `CCN(CC)C(=O)CCCCCCCCC1CO1` (stereo not given), the EC50 was above 200 µM and the IC50 amounted to 115 µM.

For `c1nc2cscc2c2cscc12`, the outcome was inactive.

Take `NC(=O)c1ccc(NC(=O)c2ccccc2SC(=O)CCCC[n+]2ccccc2)cc1`: the EC50 is 7.41 µM and the half-maximal inhibitory concentration (IC50) turned out to be 15.8 µM.

In the case of `C(CCCCc1nnc(N2CCCCC2)o1)CCCc1nnc(N2CCCCC2)o1`, the EC50 was above 200 µM and the IC50 is above 200 µM.

For `COC1CC(O[C@H]2CC[C@@]3(C)[C@H](CC[C@@H]4[C@@H]3CC[C@]3(C)[C@@H](C5=CC(=O)OC5)[C@@H](OC(C)=O)C[C@]43O)C2)OC(C)C1O` (stereo not given in full), the EC50 was above 0.2 µM and the concentration for half-maximal inhibition (IC50) was 0.0102 µM.

On to `CC(=Nc1ccc(Cl)c(Cl)c1)c1ccncc1`, for which the outcome was inactive.

Take `c1ccc(N=c2nc(N3CCOCC3)ss2)cc1`: the outcome was inactive.

In the case of `CN1CC(=O)N2Cc3ccccc3-n3cccc3C2C1` (stereo not given), the outcome was inactive.

Take `O=C(/C=C/c1ccc(OCCSCCCCCCCCCCSCCOc2ccc(/C=C/C(=O)c3ccc(Cl)cc3)cc2)cc1)c1ccc(Cl)cc1`: the EC50 is above 12.9 µM and the IC50 came out at 12 µM.

On to `CCSc1nnc2c(-c3ccccc3)n[nH]c2n1`, for which the result was inactive.

For `C=CCNC(=S)/N=C\c1c(C)[nH]n(-c2ccccc2)c1=O`, the EC50 is above 100 µM and the IC50 worked out at 95.5 µM.

For the compound `COc1ccc(N=C/C=C/c2ccccc2)cc1`, the EC50 was above 21.9 µM and the IC50 was above 21.9 µM.

Turning to `CN(CCC(N)CC(=O)NC1C=CC(n2ccc(N)nc2=O)OC1C(=O)O)C(=N)N` (stereo not given), the EC50 is above 200 µM, the outcome was inactive and the 50% inhibitory concentration (IC50) was found to be 31.6 µM.

With `CCOC(=O)N/N=C(\Cc1ccc([N+](=O)[O-])cc1)OCC`, the EC50 was above 200 µM and the IC50 was above 200 µM.

Turning to `COc1ccc(N2CCN(c3ccc4c(c3)NCC(=O)N4)CC2)cc1`, the EC50 was above 200 µM and the IC50 came out at 45.7 µM.

For `COc1ccc(C2(C3c4cc(OC)c(OC)cc4CCN3C)SCCCS2)cc1O` (stereo not given), the EC50 was above 200 µM and the IC50 stood at 151 µM.

Regarding `CCOC(=O)C(C)(C)Oc1ccc2c(=O)cc(-c3ccc(Cl)cc3)oc2c1`, the EC50 is above 18.6 µM and the concentration for half-maximal inhibition (IC50) was above 18.6 µM.

Turning to `NC(=O)C1c2ccccc2C=Cc2ccccc21`, the EC50 was above 200 µM and the IC50 is 155 µM.

As to `CNC(=O)Oc1c(Cl)cccc1SSc1cccc(Cl)c1OC(=O)NC`, the EC50 was above 200 µM and the IC50 came out at 19.5 µM.

Take `c1ccc(Nc2nnc(-c3nsc4ccccc34)o2)cc1`: the EC50 was above 24.5 µM and the 50% inhibitory concentration (IC50) was above 24.5 µM.

As for `O=c1oc2ccccc2c(O)c1Oc1ccccc1`, the EC50 is above 200 µM and the IC50 was found to be 195 µM.

As to `COCc1cn(C2C=CC(CO)O2)c(=O)[nH]c1=O` (stereo not given), the EC50 is 17.4 µM and the concentration for half-maximal inhibition (IC50) was 123 µM.

As for `O=C(O)c1cc2ccccc2c(S(=O)(=O)O)c1O`, the EC50 was above 200 µM and the IC50 was above 200 µM.

As for `CC(=O)C(=O)N1Cc2cc3ccccc3nc2C1`, the EC50 is above 708 µM and the IC50 amounted to 257 µM.

Turning to `Cc1cccc2[nH]c3c(c(O)cc4[nH]c5cccc(C)c5c(=O)c43)c(=O)c12`, the EC50 is above 200 µM and the IC50 was 20.9 µM.

As to `O=C1CCC(c2nc3cc(Cl)ccc3o2)C(=O)N1` (stereo not given), the EC50 was above 245 µM and the IC50 is above 245 µM.
